Reference: patent US20050020519A1, “Modulation of insulin-regulated aminopeptidase (irap)/angiotensin iv (at4) receptor activity” (priority 2001, published 2005)
Where no end group is shown, it is not given here.

Experiments:
AT4 receptor = conditions: Moeller et al, 1996; Zhang et al, 1999; cited from earlier work
SK-N-MC cells = test: [^3H]-thymidine uptake in SK-N-MC cells; assay type: cell-based; conditions: Ang IV 10^−10-10^−7 M; LVVYPWTQRF 10^−10-10^−6 M
Protocol: NG108-15 and SK-N-MC cells were cultured in DMEM supplemented with 10% heat-inactivated FCS, 2% HAT supplement, and 100 U/ml penicillin/streptomycin. Cells were routinely used between passages 20 and 30.
Cells were plated at a density of 3×10^4 cells/well in 24 well Falcon plates that had been coated with 0.1 mg/ml poly-L-lysine hydrobromide. The cells were allowed to adhere overnight, and then serum deprived for 48 h before being treated with […] (SEQ ID NO:2) and/or Ang IV (10^−10 to 10^−6 M) for 24 h in medium with or without serum. Five hours before the end of the experiment 1 μCi of ^3H-thymidine was added to each well. At the completion of the incubation, cells were washed twice with 1 ml of PBS at 4° C., followed by 5% trichloroacetic acid at 4° C. for 30 min, which was aspirated before solubilizing the cells in 1 ml 0.25 M NaOH and 0.1% SDS for 30 min at 37° C. Samples were then collected into 5 ml of Ready Value scintillation fluid and ^3H measured in a liquid scintillation counter.

IRAP (AT4 receptor) = target: T1, IRAP (AT4 receptor) (Homo sapiens, UniProt Q9UIQ6); test: ^125I-Nle^1 Ang IV binding to membranes of HEK 293 cells transfected with IRAP cDNA; conditions: IRAP cDNA transfected cells
T1 construct: expressed in transfected cells; host or cells: HEK 293 cells (membranes)
T1 sequence (Q9UIQ6 whole entry): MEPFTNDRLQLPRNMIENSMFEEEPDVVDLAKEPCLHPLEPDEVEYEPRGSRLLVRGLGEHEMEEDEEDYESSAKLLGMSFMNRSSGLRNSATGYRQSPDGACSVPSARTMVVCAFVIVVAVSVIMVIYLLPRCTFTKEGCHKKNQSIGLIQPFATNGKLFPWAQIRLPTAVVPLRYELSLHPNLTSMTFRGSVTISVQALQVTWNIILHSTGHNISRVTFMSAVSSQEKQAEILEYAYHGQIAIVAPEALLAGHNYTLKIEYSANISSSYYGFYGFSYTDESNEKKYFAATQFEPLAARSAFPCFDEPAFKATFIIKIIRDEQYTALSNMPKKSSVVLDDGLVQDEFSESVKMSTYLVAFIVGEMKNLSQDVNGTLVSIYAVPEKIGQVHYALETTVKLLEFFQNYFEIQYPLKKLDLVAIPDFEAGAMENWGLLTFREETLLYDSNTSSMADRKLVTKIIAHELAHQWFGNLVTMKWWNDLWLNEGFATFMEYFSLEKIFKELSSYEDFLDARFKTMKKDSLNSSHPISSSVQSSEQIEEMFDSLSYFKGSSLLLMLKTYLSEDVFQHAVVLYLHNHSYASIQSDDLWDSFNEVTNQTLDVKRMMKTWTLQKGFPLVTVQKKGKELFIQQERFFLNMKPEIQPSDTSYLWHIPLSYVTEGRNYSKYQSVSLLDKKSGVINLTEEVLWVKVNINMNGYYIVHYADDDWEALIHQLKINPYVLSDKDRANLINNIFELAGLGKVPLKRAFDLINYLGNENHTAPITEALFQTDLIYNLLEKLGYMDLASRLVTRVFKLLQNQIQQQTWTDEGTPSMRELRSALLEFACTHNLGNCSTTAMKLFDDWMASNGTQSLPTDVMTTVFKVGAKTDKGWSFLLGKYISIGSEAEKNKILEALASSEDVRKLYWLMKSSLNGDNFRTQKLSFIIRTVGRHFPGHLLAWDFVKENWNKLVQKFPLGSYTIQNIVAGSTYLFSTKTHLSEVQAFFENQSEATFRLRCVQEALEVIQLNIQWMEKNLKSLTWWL
Description: The amount of radioligand bound to the membranes from HEK 293 cells transfected with IRAP cDNA was expressed as a percentage of radioligand bound to membranes from HEK 293 cells transfected with control plasmids.

rats = test: Morris water maze, scopolamine-induced amnesia; assay type: in vivo, rat; conditions: 1 nmole icv after 70 nmole scopolamine
Description: The maze consisted of a circular tank, 1.6 m in diameter by 0.6 m in height, containing water to a depth of 30 cm. The room contained visual cues placed 40 cm from the edge of the tank. The rats were subjected to two days of familiarisation to the task, during which the escape pedestal is visible to the animals. During the acquisition phase, for the following 5 days, the water in the tank was rendered opaque, and the escape platform was submerged under the surface of the water. The animals had to rely on the visual cues around the room to find the submerged escape pedestal. The latency of the animal in finding the pedestal during the acquisition phase was taken as a measure of the spatial memory performance of the animal.
Rats were surgically implanted with cannulae in their lateral ventricles and allowed two to three days of recovery. During the familiarisation trials on days 1 and 2, the animals were placed in the water facing the wall of the tank from different starting positions equidistant from the escape pedestal. When the animals located and mounted the pedestal, they were allowed 30 seconds on the pedestal before the commencement of the next trial. Four consecutive trials were carried out on each animal on each day, and the mean latency period before the animal reached the pedestal was plotted. […]

mice = test: Y maze spatial memory, normal mice; assay type: in vivo, mouse
Protocol: The Y maze consists of three identical alleys (30 cm in length, 10 cm in width and 17 cm in height) with the three arms separated by 120° angles. To minimize stress, the maze is located in a sound-attenuated room under dim illumination, with the floor of the maze covered with sawdust. After each trial, the sawdust is mixed to eliminate olfactory cues. For spatial orientation, visual cues are placed on the walls of the testing room.
The test consisted of two trials, separated by a time interval known as the intertrial interval. During the acquisition trial, the animals were placed at the distal end of one arm, their heads pointing away from the centre of the maze. The mice were allowed to visit only two accessible arms of the maze for 3 minutes. At the end of the acquisition trial, the mice were replaced in their cages for the intertrial interval. During the retention trial, the animals had access to all three arms for 5 minutes. The number and duration of time spent in the novel arm were documented.
A shorter intertrial interval (2 hours) separating the acquisition phase from the retention phase enables amnesiant effects to be detected. Control mice still remember the location of the novel arm and will preferentially spend more time (45-50% of time) in that arm.
Mice were surgically implanted with an infusion cannula in the dorsal third ventricle. […]

rat hippocampal slices = test: Potassium-evoked ^3H-choline release from rat hippocampal slices; assay type: cell-based; conditions: at 10^−7M
Protocol: To determine the effect of IRAP inhibitors an acetylcholine release for rat hippocampal slices in vitro, rats were anaesthetized with sodium pentobarbitone, decapitated and the brain rapidly extracted and put on ice. The two sides of the hippocampus were then dissected, and stored in Krebs buffer on ice. The tissues were sectioned into 400 μm slices using a McI1wain slicer, and incubated with 10 μM of ^3H-choline in Krebs buffer for 20 min at 37° C. Following the incubation, the sections were transferred to Brandel superfusion chambers filled with carbogenated Krebs buffer, pH7.0 containing […] hemicholinium HC-3 to prevent choline reuptake. The slices were washed for 60 min at 37° C. with Krebs buffer at a flow rate of 500 μl/min. Superfusate samples were collected at 5 min intervals for the duration of the experiment. After a stable baseline was established, the hippocampal slices were depolarised by the addition of 30 mM KCl to the Krebs buffer and infused for 4 min (stimulation period S1). The tissue was then allowed to recover for 25 min before the next stimulation period (S2). To test the effect of […] […] Fractional ^3H-choline release, expressed as a ratio of S2/S1, was then calculated for each of the different peptides at the different doses.

Sequence: LVVYPWTQRF
- affinity for AT4 receptor (AT4 receptor): nanomolar affinity
- increase of [^3H]-thymidine uptake (SK-N-MC cells): up to 81 % above control levels
- binding of ^125I-Nle^1 angiotensin IV to IRAP sites inhibited by ligand (IRAP (AT4 receptor)): competitively inhibited
- latency in locating the submerged pedestal (rats): reversed the scopolamine-induced latency
- time in novel arm versus control mice (mice; after 6 days of infusion at 0.3 pmol/h): indistinguishable from each other
- time spent in the novel arm (mice; after three days of infusion at 0.3 pmol/h, 6 h intertrial interval, control approximately 33%): 50-60 % of time
- maximum effect on potassium-evoked ^3H-choline release (rat hippocampal slices): 180 % of control
